EC50 data for 22 compounds are collected here from patent US11168083B2, “Inhibitors of Plasma Kallikrein and uses thereof” (Takeda Pharmaceutical Company Limited, priority 2017, dated 2021).

Some results are limits rather than exact numbers.

Chain of human activated kallikrein enzyme (P03952 391-638): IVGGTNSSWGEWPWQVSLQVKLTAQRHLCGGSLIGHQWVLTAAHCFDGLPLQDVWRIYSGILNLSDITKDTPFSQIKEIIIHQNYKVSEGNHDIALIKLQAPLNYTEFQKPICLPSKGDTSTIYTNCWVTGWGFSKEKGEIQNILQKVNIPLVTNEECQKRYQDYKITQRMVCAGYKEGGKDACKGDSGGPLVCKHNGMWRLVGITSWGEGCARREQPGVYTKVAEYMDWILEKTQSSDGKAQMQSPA
Chain of human activated kallikrein enzyme (P03952 20-390 partner): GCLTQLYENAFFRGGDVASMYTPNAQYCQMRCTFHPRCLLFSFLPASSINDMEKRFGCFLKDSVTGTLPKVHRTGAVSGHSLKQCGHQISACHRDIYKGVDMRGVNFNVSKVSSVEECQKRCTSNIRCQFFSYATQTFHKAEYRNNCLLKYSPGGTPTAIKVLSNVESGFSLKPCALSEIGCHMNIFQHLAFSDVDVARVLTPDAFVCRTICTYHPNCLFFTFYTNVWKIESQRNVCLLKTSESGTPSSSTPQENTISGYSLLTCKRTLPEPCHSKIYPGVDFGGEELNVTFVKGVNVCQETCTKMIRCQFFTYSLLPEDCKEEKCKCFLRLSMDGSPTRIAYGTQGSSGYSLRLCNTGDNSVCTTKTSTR

The assay addresses human activated kallikrein enzyme (Homo sapiens (Human), UniProt P03952). Nature of the assay: Inhibition of human activated kallikrein enzyme, fluorogenic peptide substrate assay (two formats). Type of assay: biochemical. To be noted: Table 2; column head prints nM, ranges defined in μM; read-out: pKal EC50. The method, then: The example compounds were evaluated for inhibition of the human activated kallikrein enzyme in two formats of an assay employing a fluorogenic peptide substrate. In one assay format, the concentrations of reagents were as follows: 20 mM Tris pH 7.5, 1 mM EDTA, 150 mM sodium chloride, 0.1% PEG-400, 0.1% Triton X-100, 500 pM activated kallikrein enzyme, 300 uM Pro-Phe-Arg-7-amido-4-methylcoumarin substrate. Prior to reaction initiation with substrate, enzyme and inhibitors were preincubated for 30 min at room temperature. After initiation with substrate, reactions were incubated for 10 min at room temperature and fluorescence emission at 460 nm from 380 nm excitation measured with a microplate reader. In another assay format, the concentrations of reagents were as follows: 20 mM Tris pH 7.5, 1 mM EDTA, 150 mM sodium chloride, 0.1% PEG-400, 0.1% Triton X-100, 5 pM activated kallikrein enzyme, 300 uM Pro-Phe-Arg-7-amido-4-methylcoumarin substrate. Prior to reaction initiation with substrate, enzyme and inhibitors were preincubated for 30 min at room temperature. After initiation with substrate, reactions were incubated for 18 hr at room temperature and fluorescence emission at 460 nm from 380 nm excitation measured with a microplate reader.
In general, EC50 refers to the concentration needed to bring the measured effect to its halfway point. On to `CNC(=O)[C@H](CCCCNC(=N)N)NC(=O)c1csc([C@@H]2C[C@@H](N)CN2C(=O)c2cn3cc(OC)ccc3n2)n1` [Compound 20, 2-((2S,4R)-4-amino-1-(6-methoxyimidazo[1,2-a]pyridine-2-carbonyl)pyrrolidin-2-yl)-N—((S)-6-guanidino-1-(methylamino)-1-oxohexan-2-yl)thiazole-4-carboxamide], for which the concentration for a half-maximal effect (EC50) is 100 to 1000 nM.
With `CNC(=O)[C@H](CCCCNC(=N)N)NC(=O)c1csc([C@@H]2C[C@@H](N)CN2C(=O)c2cn3cc(I)ccc3n2)n1` [Compound 21, 2-((2S,4R)-4-amino-1-(6-iodoimidazo[1,2-a]pyridine-2-carbonyl)pyrrolidin-2-yl)-N—((S)-6-guanidino-1-(methylamino)-1-oxohexan-2-yl)thiazole-4-carboxamide], the EC50 was at most 100 nM.
Under `N=C(N)NCCCC[C@H](NC(=O)c1csc([C@@H]2C[C@@H](N)CN2C(=O)c2cn3cc(Cl)ccc3n2)n1)C(N)=O` [Compound 22, 2-((2S,4R)-4-amino-1-(6-chloroimidazo[1,2-a]pyridine-2-carbonyl)pyrrolidin-2-yl)-N—((S)-1-amino-6-guanidino-1-oxohexan-2-yl)thiazole-4-carboxamide] stands at most 100 nM.
Next, `N=C(N)NCCCC[C@H](NC(=O)c1csc([C@@H]2C[C@@H](N)CN2C(=O)c2cn3cc(Cl)ccc3n2)n1)C(=O)O` [Compound 23, N^2-(2-((2S,4R)-4-amino-1-(6-chloroimidazo[1,2-a]pyridine-2-carbonyl)pyrrolidin-2-yl)thiazole-4-carbonyl)-N6-carbamimidoyl-L-lysine]: at most 100 nM; `CN(C)C(=O)[C@H](CCCCNC(=N)N)NC(=O)c1csc([C@@H]2C[C@@H](N)CN2C(=O)c2cn3cc(Cl)ccc3n2)n1` [Compound 24, 2-((2S,4R)-4-amino-1-(6-chloroimidazo[1,2-a]pyridine-2-carbonyl)pyrrolidin-2-yl)-N—((S)-1-(dimethylamino)-6-guanidino-1-oxohexan-2-yl)thiazole-4-carboxamide]: 100 to 1000 nM.
Next, `CNC(=O)[C@H](CCCCN)NC(=O)c1csc([C@@H]2C[C@@H](N)CN2C(=O)c2cn3cc(Cl)ccc3n2)n1` [Compound 25, 2-((2S,4R)-4-amino-1-(6-chloroimidazo[1,2-a]pyridine-2-carbonyl)pyrrolidin-2-yl)-N—((S)-6-amino-1-(methylamino)-1-oxohexan-2-yl)thiazole-4-carboxamide]: over 9900 nM.
As for `CNC(=O)[C@H](CCCCNC(C)=O)NC(=O)c1csc([C@@H]2C[C@@H](N)CN2C(=O)c2cn3cc(Cl)ccc3n2)n1` [Compound 26, N—((S)-6-acetamido-1-(methylamino)-1-oxohexan-2-yl)-2-((2S,4R)-4-amino-1-(6-chloroimidazo[1,2-a]pyridine-2-carbonyl)pyrrolidin-2-yl)thiazole-4-carboxamide], the EC50 is over 9900 nM.
Under `CNC(=O)[C@H](CCCCNC(N)=O)NC(=O)c1csc([C@@H]2C[C@@H](N)CN2C(=O)c2cn3cc(Cl)ccc3n2)n1` [Compound 27, 2-((2S,4R)-4-amino-1-(6-chloroimidazo[1,2-a]pyridine-2-carbonyl)pyrrolidin-2-yl)-N—((S)-1-(methylamino)-1-oxo-6-ureidohexan-2-yl)thiazole-4-carboxamide] stands over 9900 nM; under `CNC(=O)[C@H](CCCNC(=N)N)NC(=O)c1csc([C@@H]2C[C@@H](N)CN2C(=O)c2cn3cc(Cl)ccc3n2)n1` [Compound 28, 2-((2S,4R)-4-amino-1-(6-chloroimidazo[1,2-a]pyridine-2-carbonyl)pyrrolidin-2-yl)-N—((S)-5-guanidino-1-(methylamino)-1-oxopentan-2-yl)thiazole-4-carboxamide], 5000 to 9900 nM; under `CNC(=O)[C@H](CCC(N)=O)NC(=O)c1csc([C@@H]2C[C@@H](N)CN2C(=O)c2cn3cc(Cl)ccc3n2)n1` [Compound 29, (S)-2-(2-((2S,4R)-4-amino-1-(6-chloroimidazo[1,2-a]pyridine-2-carbonyl)pyrrolidin-2-yl)thiazole-4-carboxamido)-N1-methylpentanediamide], over 9900 nM.
Next, `CNC(=O)[C@H](Cc1c[nH]cn1)NC(=O)c1csc([C@@H]2C[C@@H](N)CN2C(=O)c2cn3cc(Cl)ccc3n2)n1` [Compound 30, N—((S)-3-(1H-imidazol-4-yl)-1-(methylamino)-1-oxopropan-2-yl)-2-((2S,4R)-4-amino-1-(6-chloroimidazo[1,2-a]pyridine-2-carbonyl)pyrrolidin-2-yl)thiazole-4-carboxamide]: over 9900 nM.
Next, `CNC(=O)[C@H](Cc1c[nH]c2ccccc12)NC(=O)c1csc([C@@H]2C[C@@H](N)CN2C(=O)c2cn3cc(Cl)ccc3n2)n1` [Compound 31, N—((S)-3-(1H-indol-3-yl)-1-(methylamino)-1-oxopropan-2-yl)-2-((2S,4R)-4-amino-1-(6-chloroimidazo[1,2-a]pyridine-2-carbonyl)pyrrolidin-2-yl)thiazole-4-carboxamide]: over 9900 nM; `CNC(=O)[C@H](Cc1ccc(O)cc1)NC(=O)c1csc([C@@H]2C[C@@H](N)CN2C(=O)c2cn3cc(Cl)ccc3n2)n1` [Compound 32, 2-((2S,4R)-4-amino-1-(6-chloroimidazo[1,2-a]pyridine-2-carbonyl)pyrrolidin-2-yl)-N—((S)-3-(4-hydroxyphenyl)-1-(methylamino)-1-oxopropan-2-yl)thiazole-4-carboxamide]: over 9900 nM; `CNC(=O)[C@@H](CCCCNC(=N)N)NC(=O)c1csc([C@@H]2CCCN2C(=O)c2cn3cc(Cl)ccc3n2)n1` [Compound 34, 2-((S)-1-(6-Chloroimidazo[1,2-a]pyridine-2-carbonyl)pyrrolidin-2-yl)-N—((R)-6-guanidino-1-(methylamino)-1-oxohexan-2-yl)thiazole-4-carboxamide]: over 9900 nM.
Regarding `CNC(=O)[C@H](CCCCNC(=N)N)NC(=O)c1csc([C@@H]2C[C@@H](NC(C)=O)CN2C(=O)c2cn3cc(Cl)ccc3n2)n1` [Compound 35, 2-((2S,4R)-4-acetamido-1-(6-chloroimidazo[1,2-a]pyridine-2-carbonyl)pyrrolidin-2-yl)-N—((S)-6-guanidino-1-(methylamino)-1-oxohexan-2-yl)thiazole-4-carboxamide], the EC50 lay in the range of 1000 to 5000 nM.
Under `CNC(=O)[C@H](CCCCNC(=N)N)NC(=O)c1csc([C@@H]2C[C@H](N)CN2C(=O)c2cn3cc(Cl)ccc3n2)n1` [Compound 36, 2-((2S,4S)-4-amino-1-(6-chloroimidazo[1,2-a]pyridine-2-carbonyl)pyrrolidin-2-yl)-N—((S)-6-guanidino-1-(methylamino)-1-oxohexan-2-yl)thiazole-4-carboxamide] stands at most 100 nM; under `CNC(=O)[C@H](CCCCNC(=N)N)NC(=O)c1csc([C@@H]2C[C@H](O)CN2C(=O)c2cn3cc(Cl)ccc3n2)n1` [Compound 37, 2-((2S,4S)-1-(6-Chloroimidazo[1,2-a]pyridine-2-carbonyl)-4-hydroxypyrrolidin-2-yl)-N—((S)-6-guanidino-1-(methylamino)-1-oxohexan-2-yl)thiazole-4-carboxamide], 1000 to 5000 nM; under `CNC(=O)[C@H](CCCCNC(=N)N)NC(=O)c1csc([C@@H]2C[C@@H](O)CN2C(=O)c2cn3cc(Cl)ccc3n2)n1` [Compound 38, 2-((2S,4R)-1-(6-Chloroimidazo[1,2-a]pyridine-2-carbonyl)-4-hydroxypyrrolidin-2-yl)-N—((S)-6-guanidino-1-(methylamino)-1-oxohexan-2-yl)thiazole-4-carboxamide], over 9900 nM.
Turning to `CNC(=O)[C@@H](CCCCNC(=N)N)NC(=O)c1csc([C@@H]2C[C@@H](O)CN2C(=O)c2cn3cc(Cl)ccc3n2)n1` [Compound 39, 2-((2S,4R)-1-(6-Chloroimidazo[1,2-a]pyridine-2-carbonyl)-4-hydroxypyrrolidin-2-yl)-N—((R)-6-guanidino-1-(methylamino)-1-oxohexan-2-yl)thiazole-4-carboxamide], the concentration for a half-maximal effect (EC50) was in the range of 5000 to 9900 nM.
Take `CNC(=O)[C@H](CCCCNC(=N)N)NC(=O)c1csc([C@@H]2C[C@@H](N)CN2C(=O)c2ccc3ccccc3c2)n1` [Compound 40, 2-((2S,4R)-1-(2-naphthoyl)-4-aminopyrrolidin-2-yl)-N—((S)-6-guanidino-1-(methylamino)-1-oxohexan-2-yl)thiazole-4-carboxamide]: the 50% effective concentration (EC50) was in the range of 1000 to 5000 nM.
Under `CNC(=O)[C@H](CCCCNC(=N)N)NC(=O)c1csc([C@@H]2C[C@@H](N)CN2C(=O)c2ccc3ncc(Cl)cc3c2)n1` [Compound 41, 2-((2S,4R)-4-amino-1-(3-chloroquinoline-6-carbonyl)pyrrolidin-2-yl)-N—((S)-6-guanidino-1-(methylamino)-1-oxohexan-2-yl)thiazole-4-carboxamide] stands 100 to 1000 nM.
Under `CNC(=O)[C@H](CCCCNC(=N)N)NC(=O)c1csc([C@@H]2C[C@@H](N)CN2C(=O)c2ccc3c(Cl)csc3c2)n1` [Compound 43, 2-((2S,4R)-4-amino-1-(3-chlorobenzo[b]thiophene-6-carbonyl)pyrrolidin-2-yl)-N—((S)-6-guanidino-1-(methylamino)-1-oxohexan-2-yl)thiazole-4-carboxamide] stands 5000 to 9900 nM.
